Laboratory results from PMC7251123, “CX-5461 activates the DNA damage response and demonstrates therapeutic efficacy in high-grade serous ovarian cancer” (Nature Communications, 2020).

What was measured:
[1] = system: replication forks in OVCAR8 cells; experiment: DNA fibre analysis after 24 h pre-treatment; assay type: cell-based, human; details: OVCAR8, 100 nM, 24 h pre-treatment then CldU/IdU labelling
Experimental: Error bars represent mean ± SD. d DNA fibre analysis of OVCAR8 cells pre-treated with 100 nM CX-5461, 100 nM BMN-673 or in combination, washed then sequentially labelled with CldU and IdU as indicated in the schematic (top). Fibres were processed and analyzed as described above. n = 150 replication tracks were analysed over two independent experiments. Error bars represent mean ± SD.
We therefore performed DNA fibre analysis to investigate the effect of CX-5461 on fork stabilization (Fig. 6c and Supplementary Fig. 8A) in OVCAR8 cells. Nascent replication tracks were sequentially labelled with CldU and IdU before treatment with CX-5461 for 3 h. […] We next assessed whether DNA damage induced by CX-5461 treatment affects fork progression by pre-treating cells with CX-5461 for 24 h and then pulse labelled with both analogs (Fig. 6d).

[2] = set-up: method as in PMID 31092402; details: Phase I CX-5461 dose escalation study ref 16; cited from earlier work

In the case of `Cc1cnc(CNC(=O)c2c(=O)c3ccc(N4CCCN(C)CC4)nc3n3c2sc2ccccc23)cn1` [CX-5461], the “fork progression / fork length” value [1] is given as “no effect on fork length” and the “plasma concentrations range, lower end” value [2] is given as 584.1 nM.
